Molecular target: hKCNQ2/3 (Homo sapiens, UniProt O43525+O43526)
Assay: Fluorescence assay using a voltage sensitive dye
Type: cell-based
Set-up: expressed in transfected cells; host or cells: CHO-K1
Experimental: Biological Data Fluorescence Assay Using a Voltage Sensitive Dye
Human CHO-K1 cells expressing KCNQ2/3 channels are cultivated adherently at 37° C., 5% CO2 and 95% humidity in cell culture bottles (e.g. 80 cm^2 TC flasks, Nunc) with DMEM-high glucose (Sigma Aldrich, D7777) including 10% FCS (PAN Biotech, e.g. 3302-P270521) or alternatively with MEM Alpha Medium (1×, liquid, Invitrogen, #22571), 10% fetal calf serum (FCS) (Invitrogen, #10270-106, heat-inactivated) and the necessary selection antibiotics.
Before being distributed for the measurements, the cells are washed with a 1×DPBS buffer without Ca^2+/Mg^2+ (e.g. Invitrogen, #14190-094) and detached from the bottom of the culture vessel by means of Accutase (PAA Laboratories, #L11-007) (incubation with Accutase for 15 min at 37° C.). The cell count then present is determined using a CASY™ cell counter (TCC model, Schärfe System) in order subsequently to apply, according to density optimization for the individual cell line, 20,000-30,000 cells/well/100 μl of the described nutrient medium to 96-well measuring plates of the Corning™ CellBIND™ type (Flat Clear Bottom Black Polystyrene Microplates, #3340). Incubation is then carried out for one hour at room temperature, without gassing or adjusting the humidity, followed by incubation for 24 hours at 37° C., 5% CO2 and 95% humidity.
The voltage-sensitive fluorescent dye from the Membrane Potential Assay Kit (Red™ Bulk format part R8123 for FLIPR, MDS Analytical Technologies™) is prepared by dissolving the contents of a vessel Membrane Potential Assay Kit Red Component A in 200 ml of extracellular buffer (ES buffer, 120 mM NaCl, 1 mM KCl, 10 mM HEPES, 2 mM CaCl2, 2 mM MgCl2, 10 mM glucose; pH 7.4). After removal of the nutrient medium, the cells are washed with 200 μl of ES buffer, then covered with a layer of 100 μl of the dye solution prepared above and incubated for 45 min at room temperature with the exclusion of light.
The fluorescence measurements are carried out with a BMG Labtech FLUOstar™ or BMG Labtech NOVOstar™ or BMG Labtech POLARstar™ instrument (525 nm excitation, 560 nm emission, Bottom Read mode). After incubation of the dye, 50 μl of the test substances in the desired concentrations, or 50 μl of ES buffer for control purposes, are introduced into separate cavities of the measuring plate and incubated for 30 min at room temperature while being shielded from light. The fluorescence intensity of the dye is then measured for 5 min and the fluorescence value F1 of each well is thus determined at a given, constant time. 15 μL of a 100 mM KCl solution ([…]) are then added to each well. The change in fluorescence is subsequently measured until all the relevant measured values have been obtained (mainly 5-30 min). At a given time after KCl application, a fluorescence value F2 is determined, in this case at the time of the fluorescence peak.
For calculation, the fluorescence intensity F2 is compared with the fluorescence intensity F1, and the agonistic activity of the target compound on the potassium channel is determined therefrom. F2 and F1 are calculated as follows:
[formula] In order to determine whether a substance has an agonistic activity,
[formula] for example, can be compared with
[formula] of control cells.
[formula] is determined by adding to the reaction batch only the buffer solution instead of the substance to be tested, determining the value F1K of the fluorescence intensity, adding the potassium ions as described above and measuring a value F2K of the fluorescence intensity. Then F2K and F1K are calculated as follows:
[formula] A substance has an agonistic activity on the potassium channel when
[formula] is greater than
[formula] Independently of the comparison of
[formula] it is also possible to conclude that a target compound has agonistic activity if an increase in
[formula] is to be observed as the dosage of the target compound increases. […]

EC50 [nM] | SMILES
1860 | Cc1ccc(CNC(=O)c2cccnc2SCCS(=O)(=O)c2ccccc2)cc1 [Example 5, N-(4-methylbenzyl)-2-(2-(phenylsulfonyl)ethylthio)-nicotinamide]
1280 | O=C(NCc1cc(F)cc(F)c1)c1cccnc1SCCS(=O)(=O)c1ccccc1 [Example 8, N-(3,5-difluorobenzyl)-2-(2-(phenylsulfonyl)ethylthio)nicotinamide]
1170 | O=C(NCc1ccccc1F)c1cccnc1SCCS(=O)(=O)c1ccccc1 [Example 11, N-(2-fluorobenzyl)-2-(2-(phenylsulfonyl)ethylthio)nicotinamide]
1800 | O=C(NCc1ccc(F)c(F)c1)c1cccnc1SCCS(=O)(=O)c1ccccc1 [Example 12, N-(3,4-difluorobenzyl)-2-(2-(phenylsulfonyl)ethylthio)nicotinamide]
1400 | CN(Cc1cccc(Br)c1)C(=O)c1cccnc1SCCS(=O)(=O)c1ccccc1 [Example 13, N-(3-bromobenzyl)-N-methyl-2-(2-(phenylsulfonyl)ethylthio)nicotinamide]
2480 | O=C(NCc1cccc(F)c1)c1cccnc1SCCS(=O)(=O)c1ccccc1 [Example 15, N-(3-fluorobenzyl)-2-(2-(phenylsulfonyl)ethylthio)nicotinamide]
6520 | COc1ccc(CNC(=O)c2cccnc2SCCS(=O)(=O)c2ccccc2)cc1 [Example 17, N-(4-methoxybenzyl)-2-(2-(phenylsulfonyl)ethylthio)nicotinamide]
1270 | O=C(NCc1ccc(Cl)c(Cl)c1)c1cccnc1SCCS(=O)(=O)c1ccccc1 [Example 19, N-(3,4-dichlorobenzyl)-2-(2-(phenylsulfonyl)ethylthio)nicotinamide]
1280 | O=C(NCc1ccc(F)cc1)c1cccnc1SCCS(=O)(=O)c1ccccc1 [Example 20, N-(4-fluorobenzyl)-2-(2-(phenylsulfonyl)ethylthio)nicotinamide]
1280 | O=C(NCc1cccc(Cl)c1)c1cccnc1SCCS(=O)(=O)c1ccccc1 [Example 25, N-(3-chlorobenzyl)-2-(2-(phenylsulfonyl)ethylthio)nicotinamide]
4110 | Cc1ccc(S(=O)(=O)CCSc2ncccc2C(=O)NCc2cccs2)cc1 [Example 36, N-(thiophen-2-ylmethyl)-2-(2-tosylethylthio)nicotinamide]
6090 | Cc1ccc(S(=O)(=O)CCSc2ncccc2C(=O)NCc2ccco2)cc1 [Example 39, N-(furan-2-ylmethyl)-2-(2-tosylethylthio)nicotinamide]
2390 | Cc1ccc(S(=O)(=O)CCSc2ncccc2C(=O)NCc2cc(F)cc(F)c2)cc1 [Example 41, N-(3,5-difluorobenzyl)-2-(2-tosylethylthio)nicotinamide]
1970 | Cc1ccc(S(=O)(=O)CCSc2ncccc2C(=O)NCc2ccccc2F)cc1 [Example 43, N-(2-fluorobenzyl)-2-(2-tosylethylthio)nicotinamide]
2230 | Cc1ccc(S(=O)(=O)CCSc2ncccc2C(=O)NCc2cccc(C)c2)cc1 [Example 44, N-(3-methylbenzyl)-2-(2-tosylethylthio)nicotinamide]
2140 | Cc1ccc(S(=O)(=O)CCSc2ncccc2C(=O)NCc2ccc(F)c(F)c2)cc1 [Example 45, N-(3,4-difluorobenzyl)-2-(2-tosylethylthio)nicotinamide]

EC50 [nM] | SMILES
7600 | Cc1ccc(S(=O)(=O)CCSc2ncccc2C(=O)NCc2ccc(F)cc2)cc1 [Example 49, N-(4-fluorobenzyl)-2-(2-tosylethylthio)nicotinamide]
4120 | Cc1ccc(S(=O)(=O)CCSc2ncccc2C(=O)NCc2cccc(Cl)c2)cc1 [Example 51, N-(3-chlorobenzyl)-2-(2-tosylethylthio)nicotinamide]
1820 | Cc1ccc(S(=O)(=O)CCSc2ncccc2C(=O)NCc2cccc(C(F)(F)F)c2)cc1 [Example 52, 2-(2-tosylethylthio)-N-(3-(trifluoromethyl)benzyl)nicotinamide]
2340 | O=C(NCc1ccccc1)c1cccnc1SCCS(=O)(=O)c1ccccc1 [Example 54, N-benzyl-2-(2-(phenylsulfonyl)ethylthio)nicotinamide]
16500 | CN(Cc1ccccc1)C(=O)c1cccnc1SCCS(=O)(=O)c1ccccc1 [Example 55, N-benzyl-N-methyl-2-(2-(phenylsulfonyl)ethylthio)nicotinamide]
5700 | CC(NC(=O)c1cccnc1SCCS(=O)(=O)c1ccccc1)c1cccc(C(F)(F)F)c1 (centres unmarked) [Example 57, 2-(2-(phenylsulfonyl)ethylthio)-N-(1-(3-(trifluoromethyl)phenyl)ethyl)-nicotinamide]
9590 | CC(C)(C)CNC(=O)c1cccnc1SCCS(=O)(=O)c1ccccc1 [Example 60, N-(neopentyl)-2-(2-(phenylsulfonyl)ethylthio)nicotinamide]
4390 | O=C(NCc1ccco1)c1cccnc1SCCS(=O)(=O)c1ccccc1 [Example 62, N-(furan-2-ylmethyl)-2-(2-(phenylsulfonyl)ethylthio)nicotinamide]
880 | O=C(NCc1ccc(SC(F)(F)F)cc1)c1cccnc1SCCS(=O)(=O)c1ccccc1 [Example 64, 2-(2-(phenylsulfonyl)ethylthio)-N-(4-(trifluoromethylthio)benzyl)-nicotinamide]
234 | O=C(NCc1cccs1)c1cccnc1SCCS(=O)(=O)c1ccc(Cl)cc1 [Example 99, 2-[2-(4-chlorophenyl)sulfonylethylthio]-N-(2-thienylmethyl)-nicotinamide]
503 | O=C(NCc1cccs1)c1cccnc1SCCS(=O)(=O)c1ccc(F)cc1 [Example 100, 2-[2-(4-fluorophenyl)sulfonylethylthio]-N-(2-thienylmethyl)-nicotinamide]
197 | O=C(NCc1cccs1)c1cccnc1SCCS(=O)(=O)c1ccc(C(F)(F)F)cc1 [Example 102, N-(2-thienylmethyl)-2-[2-[4-(trifluoromethyl)phenyl]sulfonylethylthio]-nicotinamide]
168 | Cc1cccc(SCCSc2ncccc2C(=O)NCc2cccs2)c1 [Example 105, 2-[2-(m-tolylthio)ethylthio]-N-(2-thienylmethyl)-nicotinamide]
187 | O=C(NCc1cccs1)c1cccnc1SCCS(=O)(=O)c1cccc(F)c1 [Example 106, 2-[2-(3-fluorophenyl)sulfonylethylthio]-N-(2-thienylmethyl)-nicotinamide]
1420 | CC(C)(C)CCNC(=O)c1cccnc1SCCS(=O)(=O)c1ccccc1 [Example 107, 2-[2-(benzenesulfonyl)ethylthio]-N-(3,3-dimethylbutyl)-nicotinamide]
75 | O=C(NCc1cccs1)c1cccnc1SCCSc1ccccc1 [Example 109, 2-[2-(phenylthio)ethylthio]-N-(2-thienylmethyl)-nicotinamide]

Source: patent US8084470B2, “Substituted nicotinamide compounds and uses thereof” (Gruenenthal GmbH, priority 2007, dated 2011)
